Values after ≈ are worked out from the molar mass of the structure shown.
Tests used:
[1] = system: Streptococcus pyogenes C203; assay: MIC, standard agar-dilution assay, Streptococcus pyogenes C203; format: cell-based; conditions: Streptococcus pyogenes C203; agar dilution
[2] = system: Streptococcus pneumoniae Park I; assay: microbe, parasite or virus in culture; format: cell-based; conditions: Streptococcus pneumoniae Park I; agar dilution
[3] = system: Staphylococcus aureus V41; assay: MIC, standard agar-dilution assay, Staphylococcus aureus V41; format: cell-based; conditions: Staphylococcus aureus V41; penicillin-resistant strain; agar dilution
[4] = system: Staphylococcus epidermidis EPI2; assay: MIC, standard agar-dilution assay, Staphylococcus epidermidis EPI2; format: cell-based; conditions: Staphylococcus epidermidis EPI2; agar dilution
[5] = system: Streptococcus pyogenes C203; assay: In vivo protection of mice experimentally infected with S. pyogenes C203; conditions: mice, doses given 1 and 4 hours post-infection
Procedure: The C-20 modified derivatives of this invention have shown in vivo antimicrobial activity against experimentally-induced infections in laboratory animals. When two doses of test compound were administered to mice experimentally infected with S. pyogenes C203, the activity observed was measured as an ED50 value [effective dose in mg/kg to protect 50% of the test animals: see Warren Wick, et al., J. Bacteriol. 81, 233-235 (1961)].

[6] = system: Mycoplasma hyorhinis; assay: MIC, broth-dilution microtiter test, Mycoplasma hyorhinis; format: cell-based; conditions: Mycoplasma hyorhinis; broth-dilution microtiter
From the text: (§1) The MIC's in Table X were obtained using conventional broth-dilution microtiter tests.

[7] = system: Staphylococcus aureus X1.1; assay: MIC, standard agar-dilution assay, Staphylococcus aureus X1.1; format: cell-based; conditions: Staphylococcus aureus X1.1; agar dilution
[8] = system: Pasteurella multocida 60A; assay: MIC, broth-dilution microtiter test, Pasteurella multocida 60A; format: cell-based; conditions: Pasteurella multocida 60A; avian isolate; broth-dilution microtiter
From the text: as §1

[9] = system: Streptococcus Group D X66; assay: MIC, standard agar-dilution assay, Streptococcus Group D X66; format: cell-based; conditions: Streptococcus Group D X66; agar dilution
[10] = system: Haemophilus influenzae Holt; assay: MIC, standard agar-dilution assay, Haemophilus influenzae Holt; format: cell-based; conditions: Haemophilus influenzae Holt; ampicillin-sensitive strain; agar dilution
[11] = system: Mycoplasma hyopneumoniae; assay: MIC, broth-dilution microtiter test, Mycoplasma hyopneumoniae; format: cell-based; conditions: Mycoplasma hyopneumoniae; broth-dilution microtiter
From the text: as §1

[12] = system: Mycoplasma synoviae; assay: MIC, broth-dilution microtiter test, Mycoplasma synoviae; format: cell-based; conditions: Mycoplasma synoviae; broth-dilution microtiter
From the text: as §1

[13] = system: Streptococcus Group 9960; assay: MIC, standard agar-dilution assay, Streptococcus Group 9960; format: cell-based; conditions: Streptococcus Group 9960; agar dilution
[14] = system: Pasteurella hemolytica 22C; assay: MIC, broth-dilution microtiter test, Pasteurella hemolytica 22C; format: cell-based; conditions: Pasteurella hemolytica 22C; broth-dilution microtiter
From the text: as §1

[15] = system: Staphylococcus aureus; assay: MIC, broth-dilution microtiter test, Staphylococcus aureus; format: cell-based; conditions: broth-dilution microtiter
From the text: as §1

[16] = system: Haemophilus influenzae R252; assay: MIC, standard agar-dilution assay, Haemophilus influenzae R252; format: cell-based; conditions: Haemophilus influenzae R252; ampicillin-resistant strain; agar dilution
[17] = system: Pasteurella multocida 17E; assay: MIC, broth-dilution microtiter test, Pasteurella multocida 17E; format: cell-based; conditions: Pasteurella multocida 17E; bovine isolate; broth-dilution microtiter
From the text: as §1

[18] = system: Staphylococcus epidermidis EPI1; assay: MIC, standard agar-dilution assay, Staphylococcus epidermidis EPI1; format: cell-based; conditions: Staphylococcus epidermidis EPI1; agar dilution
[19] = system: Staphylococcus aureus S13E; assay: MIC, standard agar-dilution assay, Staphylococcus aureus S13E; format: cell-based; conditions: Staphylococcus aureus S13E; agar dilution
[20] = system: Staphylococcus aureus X400; assay: MIC, standard agar-dilution assay, Staphylococcus aureus X400; format: cell-based; conditions: Staphylococcus aureus X400; methicillin-resistant strain; agar dilution
[21] = system: Streptococcus bovis 80; assay: MIC, broth-dilution microtiter test, Streptococcus bovis 80; format: cell-based; conditions: Streptococcus bovis 80; broth-dilution microtiter
From the text: as §1

[22] = system: Mycoplasma gallisepticum; assay: MIC, broth-dilution microtiter test, Mycoplasma gallisepticum; format: cell-based; conditions: Mycoplasma gallisepticum; broth-dilution microtiter
From the text: as §1

Structure (SMILES)	MIC [1]	MIC [2]	MIC [3]	MIC [4]	ED50, Oral [5]	ED50, Subcutaneous [5]	MIC [6]	MIC [7]	MIC [8]	MIC [9]	MIC [10]	MIC [11]	MIC [12]	MIC [13]	MIC [14]	MIC [15]	MIC [16]	MIC [17]	MIC [18]	MIC [19]	also measured
CCC1OC(=O)CC(O)C(C)C(OC2OC(C)C(O)C(N(C)C)C2O)C(CCOc2ccc(-c3ccccc3)cc2)CC(C)C(=O)C=CC(C)=CC1COC1OC(C)C(O)C(OC)C1OC (stereo not drawn) [Compound 41, 20-DH-20-O-(p-Phenylphenyl)desmycosin]	0.25 µg/mL (≈ 0.27 µM)	0.25 µg/mL (≈ 0.27 µM)	0.25 µg/mL (≈ 0.27 µM)	0.25 µg/mL (≈ 0.27 µM)	25 mg/kg × 2	> 10 mg/kg × 2	3.12 µg/mL (≈ 3.37 µM)	0.5 µg/mL (≈ 0.54 µM)	12.5 µg/mL (≈ 13.5 µM)	0.5 µg/mL (≈ 0.54 µM)	16 µg/mL (≈ 17.3 µM)	3.12 µg/mL (≈ 3.37 µM)	0.39 µg/mL (≈ 0.421 µM)	0.5 µg/mL (≈ 0.54 µM)	25 µg/mL (≈ 27 µM)	0.19 µg/mL (≈ 0.205 µM)	16 µg/mL (≈ 17.3 µM)	12.5 µg/mL (≈ 13.5 µM)	0.5 µg/mL (≈ 0.54 µM)	0.25 µg/mL (≈ 0.27 µM)	MIC [20]: 0.5 µg/mL (≈ 0.54 µM); MIC [21]: 0.39 µg/mL (≈ 0.421 µM); MIC [22]: < 0.05 µg/mL
CCC1OC(=O)CC(O)C(C)C(OC2OC(C)C(O)C(N(C)C)C2O)C(CCOc2ccccc2)CC(C)C(=O)C=CC(C)=CC1COC1OC(C)C(O)C(O)C1OC (stereo not drawn) [Compound 58, 20-DH-20-O-Phenyllactenocin]	0.06 µg/mL (≈ 0.0718 µM)	0.25 µg/mL (≈ 0.299 µM)	0.25 µg/mL (≈ 0.299 µM)	0.25 µg/mL (≈ 0.299 µM)	50 mg/kg × 2	3.2 mg/kg × 2	50 µg/mL (≈ 59.8 µM)	0.25 µg/mL (≈ 0.299 µM)	12.5 µg/mL (≈ 15 µM)	4 µg/mL (≈ 4.78 µM)	32 µg/mL (≈ 38.3 µM)	6.25 µg/mL (≈ 7.48 µM)	6.25 µg/mL (≈ 7.48 µM)	8 µg/mL (≈ 9.57 µM)	25 µg/mL (≈ 29.9 µM)	0.39 µg/mL (≈ 0.466 µM)	16 µg/mL (≈ 19.1 µM)	25 µg/mL (≈ 29.9 µM)	0.25 µg/mL (≈ 0.299 µM)	0.25 µg/mL (≈ 0.299 µM)	MIC [20]: 0.25 µg/mL (≈ 0.299 µM); MIC [21]: 1.56 µg/mL (≈ 1.87 µM); MIC [22]: 0.78 µg/mL (≈ 0.933 µM)
CCC1OC(=O)CC(O)C(C)C(OC2OC(C)C(O)C(N(C)C)C2OC(C)=O)C(CCOc2ccccc2)CC(C)C(=O)C=CC(C)=CC1COC1OC(C)C(O)C(OC)C1OC (stereo not drawn) [Compound 67, 20-DH-20-O-Phenyl-2'-O-acetyldesmycosin]	1 µg/mL (≈ 1.12 µM)	0.25 µg/mL (≈ 0.28 µM)	0.25 µg/mL (≈ 0.28 µM)	0.12 µg/mL (≈ 0.135 µM)	9 mg/kg × 2	1.0 mg/kg × 2	50 µg/mL (≈ 56 µM)	0.25 µg/mL (≈ 0.28 µM)	25 µg/mL (≈ 28 µM)	4 µg/mL (≈ 4.48 µM)	32 µg/mL (≈ 35.9 µM)	12.5 µg/mL (≈ 14 µM)	3.12 µg/mL (≈ 3.5 µM)	8 µg/mL (≈ 8.97 µM)	25 µg/mL (≈ 28 µM)	0.78 µg/mL (≈ 0.874 µM)	16 µg/mL (≈ 17.9 µM)	25 µg/mL (≈ 28 µM)	0.25 µg/mL (≈ 0.28 µM)	0.25 µg/mL (≈ 0.28 µM)	MIC [20]: 0.5 µg/mL (≈ 0.56 µM); MIC [21]: 12.5 µg/mL (≈ 14 µM); MIC [22]: 0.39 µg/mL (≈ 0.437 µM)
